Read-outs that look alike come from different tables or passages of the source.
Molecular target: T1, GFRα1-RET (Homo sapiens, UniProt P56159)
T1 construct: expressed in transfected cells; host or cells: MG87 murine fibroblast
Test: Luciferase assay: activation of Elk1 signaling in reporter-gene cells expressing GFRα1-RET (MG87 murine fibroblast stably transfected with PathDetect Elk-1, GFRα1, and RET)
Type: cell-based
Experimental: The purpose of this experiment was to evaluate the GFRα1-RET activity of the compounds 001-060 according to the invention.
The compounds were tested for their activating activity of Elk1 signaling using the previously developed reporter-gene-based system in cells expressing GFRα1-RET (MG87 murine fibroblast stably transfected with PathDetect Elk-1, GFRα1, and RET) disclosed in Sidorova, Y. A. et al.: “Persephin signaling through GFRα1: The potential for the treatment of Parkinson's disease.” Molecular and Cellular Neuroscience, July 2010, Vol. 44, pp. 223-232. DOI: 10.1016/j.mcn.2010.03.009. For EC50 determination, a dose-response test was performed using 6 concentrations of each tested compound. Dose-response curves were fitted using the sigmoidal dose-response (variable slope) analysis in GraphPad Prism program (Graph Pad Inc) and EC50 of agonist/activator activity was calculated. Dose-response experiments were all performed in duplicate, two times independently.
The compounds were tested for their activating activity of Elk1 signaling using the same materials and methods than for the compounds according to the invention (Example 2 herein, section “Materials and methods”).

[1] = Table 4, MG87 murine fibroblasts with PathDetect Elk-1, GFRα1, RET, 6 concentrations, duplicate, two times independently, agonist/activator activity, read-out: Luciferase Assay EC50

T1 sequence (P56159 25-429 limits assumed): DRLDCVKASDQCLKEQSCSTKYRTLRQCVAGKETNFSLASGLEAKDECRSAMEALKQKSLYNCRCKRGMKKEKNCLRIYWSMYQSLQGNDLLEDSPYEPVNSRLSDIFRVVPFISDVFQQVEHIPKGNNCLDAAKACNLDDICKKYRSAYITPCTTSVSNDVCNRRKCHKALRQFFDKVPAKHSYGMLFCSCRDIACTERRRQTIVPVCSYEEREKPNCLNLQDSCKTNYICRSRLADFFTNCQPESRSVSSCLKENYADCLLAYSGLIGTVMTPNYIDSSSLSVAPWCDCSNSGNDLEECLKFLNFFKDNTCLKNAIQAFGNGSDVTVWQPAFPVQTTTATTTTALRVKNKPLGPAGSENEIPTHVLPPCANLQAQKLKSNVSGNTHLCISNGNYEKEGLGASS
T1 sequence (P07949 29-1114 partner): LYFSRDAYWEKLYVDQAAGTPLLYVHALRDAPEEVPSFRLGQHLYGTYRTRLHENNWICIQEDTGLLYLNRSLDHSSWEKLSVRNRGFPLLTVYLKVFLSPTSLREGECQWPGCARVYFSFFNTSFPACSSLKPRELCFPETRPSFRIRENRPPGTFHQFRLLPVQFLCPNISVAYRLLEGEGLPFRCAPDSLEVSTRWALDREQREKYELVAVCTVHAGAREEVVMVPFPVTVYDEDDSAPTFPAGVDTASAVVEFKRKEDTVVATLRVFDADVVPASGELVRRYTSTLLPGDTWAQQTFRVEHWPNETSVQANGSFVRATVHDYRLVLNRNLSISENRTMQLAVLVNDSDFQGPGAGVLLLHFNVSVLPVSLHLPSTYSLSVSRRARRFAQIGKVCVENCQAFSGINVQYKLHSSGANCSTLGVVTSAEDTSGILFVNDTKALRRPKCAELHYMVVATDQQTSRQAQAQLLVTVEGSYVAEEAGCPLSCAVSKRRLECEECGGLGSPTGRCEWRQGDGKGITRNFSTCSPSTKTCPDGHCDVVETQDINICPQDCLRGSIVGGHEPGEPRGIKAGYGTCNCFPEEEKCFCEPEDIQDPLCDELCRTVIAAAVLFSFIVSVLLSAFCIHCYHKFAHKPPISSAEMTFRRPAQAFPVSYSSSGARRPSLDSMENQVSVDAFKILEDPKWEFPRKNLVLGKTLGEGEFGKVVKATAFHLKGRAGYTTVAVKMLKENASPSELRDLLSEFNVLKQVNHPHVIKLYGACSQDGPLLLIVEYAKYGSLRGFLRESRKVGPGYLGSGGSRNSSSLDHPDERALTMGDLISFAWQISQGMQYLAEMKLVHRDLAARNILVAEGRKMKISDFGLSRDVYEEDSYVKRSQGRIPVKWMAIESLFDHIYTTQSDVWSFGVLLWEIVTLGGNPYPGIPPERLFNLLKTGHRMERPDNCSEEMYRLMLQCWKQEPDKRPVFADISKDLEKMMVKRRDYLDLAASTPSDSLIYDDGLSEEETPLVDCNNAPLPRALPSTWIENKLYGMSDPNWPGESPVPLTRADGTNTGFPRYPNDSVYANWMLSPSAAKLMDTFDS

Q: How did the EC50 [1] turn out when `COc1ccc(S(=O)(=O)N2CCCC2)cc1N1CCN(C(=O)c2ccc(F)cc2Cl)CC1` [Compound 004, (2-chloro-4-fluoro-phenyl)-[4-(2-methoxy-5-pyrrolidin-1-ylsulfonyl-phenyl)piperazin-1-yl]methanone] was run?
A: 1 to 5 µM

Q: How did the EC50 [1] turn out when `COc1ccc(S(=O)(=O)N(C)CCCC(F)(F)F)cc1N1CCN(C(=O)c2ccc(F)cc2Cl)CC1` [Compound 037, 3-[4-(2-chloro-4-fluoro-benzoyl)piperazin-1-yl]-4-methoxy-N-methyl-N-(4,4,4-trifluorobutyl)benzenesulfonamide] was run?
A: 10 to 50 µM

Q: `CCN(CC)S(=O)(=O)c1cnc(Cl)c(N2CCN(C(=O)c3ccc(F)cc3C(F)(F)F)CC2)c1` [Compound 044, 6-chloro-N,N-diethyl-5-[4-[4-fluoro-2-(trifluoromethyl)benzoyl]piperazin-1-yl]pyridine-3-sulfonamide] was tested. Which EC50 [1] did it give?
A: 10 to 50 µM

Q: What does the source list for `COc1ccc(S(=O)(=O)N2CCC(Cc3ccccc3)CC2)cc1N1CCN(C(=O)c2cc(F)c(F)cc2Cl)CC1` [Compound 009, [4-[5-[(4-benzyl-1-piperidyl)sulfonyl]-2-methoxy-phenyl]piperazin-1-yl]-(2-chloro-4,5-difluoro-phenyl)methanone]?
A: EC50 [1]: < 1 µM; EC50 (Table 6, comparison with comparative compounds, values for 001, 009, 010 reported from Table 4, MG87 GFRα1-RET cells, read-out: Luciferase Assay EC50): < 1 µM; EC50 (text statement on Table 6 results, GFRα1-RET luciferase assay, read-out: EC50): < 10 µM

Q: For `COc1ccc(S(=O)(=O)NC(C)(C)C)cc1N1CCN(C(=O)c2ccc(F)cc2Cl)CC1` [Compound 032, N-tert-butyl-3-[4-(2-chloro-4-fluoro-benzoyl)piperazin-1-yl]-4-methoxy-benzenesulfonamide], which EC50 [1] is on record?
A: 1 to 5 µM
